PMC11374673, “Discovery of isoquinoline sulfonamides as allosteric gyrase inhibitors with activity against fluoroquinolone-resistant bacteria” (Nature Chemistry, 2024)
In brackets after ≈: the same amount, converted by molar mass. Several values for one entry are separate records, joined by “and”; a condition that tells them apart may be missing. Equal entries are not always repeated. Where two headings read alike, the source gives them in different places.

How the values were obtained:
E. coli = assay: Checkerboard assay LEI-800 with CIP; assay type: cell-based, Escherichia coli;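 note: bacterial growth read as OD600 after 20 h at 37 °C with shaking, each drug pair tested in triplicate wells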
[1] = system: E. coli W3110 gyrA S97L, S83L, D87N; assay: MIC against CRISPR/Cas9 gyrA point mutants; assay type: cell-based, Escherichia coli; conditions: Escherichia coli
Protocol: (§1) MIC was determined by broth microdilution. Single-colony cultures were grown to exponential phase (OD600 of 0.5) aerobically at 37 °C. In case of strains from the Keio collection, 50 µg ml^−1 kanamycin was supplemented to the media to ascertain a homogeneous population. The bacterial suspensions were diluted 100-fold in CAMHB and 50 µl was added to a twofold serial dilution series of test compounds (50 µl per well) in polypropylene 96-well microtitre plates to reach a volume of 100 µl. The plates were sealed with breathable membranes and incubated overnight at 37 °C with constant shaking (600 r.p.m.). The MIC was determined as the lowest concentration at which no visible bacterial growth was observed as compared with the inoculum controls from the median of a minimum of triplicates.
Mutants of the DNA gyrase subunit A encoding gene (gyrA) were constructed following the protocol for gene editing via the CRISPR–Cas9 system. Strains and plasmids used are listed in Supplementary Table 15, and primers used can be found in Supplementary Table 16. The following mutations were created: S97L in E. coli W3110. Two common mutations in the gyrA gene that give resistance to fluoroquinolone antibiotics were created in E. coli W3110, namely S83L and D87N. To create the gyrA (S97L) mutants, the construct psgRNA-gyrA-M5 was assembled as follows: The 20-nt spacer sequence was introduced by PCR on pTargetF using primers gyrA_P11 and gyrA_P12, the homology-directed repair (HDR) arms were amplified from E. coli W3110 genomic DNA by PCR using primer pairs gyrA_P05 and gyrA_P013, and gyrA_P08 and gyrA_P14. The three PCR fragments generated were cloned into the SpeI and BglII digested pTargetF via Gibson assembly. To avoid off-target effects of CRISPR, besides desired point mutation for gyrA (S97L), four other silent point mutations were also included in the HDR template. Consequently, the amino acid sequence of gyrA will remain the same in the generated mutant except for the desired mutation. Similarly, constructs psgRNA-gyrA-S83L and psgRNA-gyrA-D87N were created to introduce mutations S83L and D87N in gyrA, respectively. In psgRNA-gyrA-S83L, spacer sequence was introduced using primers gyrA_P12 and gyrA_P17, HDR template was amplified using primer pairs gyrA_P05 and gyrA_P18, and gyrA_P08 and gyrA_P19. In psgRNA-gyrA-D87N, spacer sequence was introduced using primers gyrA_P12 and gyrA_P20, HDR template was amplified using primer pairs gyrA_P05 and gyrA_P21, and gyrA_P08 and gyrA_P22. The verified constructs for gyrA engineering were transformed into E. coli W3110 carrying pCas9, and plated in LB containing kanamycin (50 µg ml^−1) for the selection of the pCas9 plasmid and spectinomycin (100 µg ml^−1) for the selection of psgRNA-gyrA-X. The plates were incubated at 30 °C. Plasmids were cured by growing the strains with 0.5 mM isopropylthiogalactoside with no antibiotics to lose first the psgRNA-gyrA plasmids. After losing the spectinomycin resistance, the strain was grown in LB with no antibiotics at 42 °C to lose the pCas plasmid. Colony PCR was performed on plasmid-free colonies using primers gyrA_P9 and gyrA_P10, and PCR products were sequenced to confirm the desired mutation

K. pneumoniae ATCC 29665 = assay: MIC by broth microdilution; assay type: cell-based, Klebsiella pneumoniae; conditions: Klebsiella pneumoniae, ATCC29665, read-out: MIC K. pneumoniae ATCC 29665
Procedure, shortened: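 Broth microdilution in CAMHB: twofold compound series inoculated with 100-fold-diluted bacteria from exponential growth (OD600 0.5, 37 °C); kanamycin 50 µg ml^−1 added for Keio collection strains. Overnight incubation, 37 °C, 600 r.p.m. shaking.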

[2] = system: E. coli BW25113 and single-gene knockouts; assay: MIC on E. coli strains of the Keio collection; assay type: cell-based, Escherichia coli; conditions: Escherichia coli
Protocol: as §1

[3] = Ciprofloxacin 0.78125 nM + LEI-800 0 µM
[4] = Ciprofloxacin 0.78125 nM + LEI-800 0.1 µM
[5] = Ciprofloxacin 0.78125 nM + LEI-800 0.2 µM
[6] = Ciprofloxacin 0.78125 nM + LEI-800 0.4 µM
[7] = Ciprofloxacin 0.78125 nM + LEI-800 0.8 µM
[8] = Ciprofloxacin 0.78125 nM + LEI-800 3.1 µM
[9] = Ciprofloxacin 0.78125 nM + LEI-800 6.2 µM
[10] = Ciprofloxacin 1.5625 nM + LEI-800 0 µM
[11] = Ciprofloxacin 1.5625 nM + LEI-800 0.1 µM
[12] = Ciprofloxacin 1.5625 nM + LEI-800 0.2 µM
[13] = Ciprofloxacin 1.5625 nM + LEI-800 0.4 µM
[14] = Ciprofloxacin 1.5625 nM + LEI-800 0.8 µM
[15] = Ciprofloxacin 1.5625 nM + LEI-800 3.1 µM
[16] = Ciprofloxacin 1.5625 nM + LEI-800 6.2 µM
[17] = Ciprofloxacin 12.5 nM + LEI-800 0.2 µM
[18] = Ciprofloxacin 12.5 nM + LEI-800 0.4 µM
[19] = Ciprofloxacin 25 nM + LEI-800 0 µM
[20] = Ciprofloxacin 25 nM + LEI-800 0.1 µM
[21] = Ciprofloxacin 25 nM + LEI-800 0.2 µM
[22] = Ciprofloxacin 25 nM + LEI-800 0.4 µM
[23] = Ciprofloxacin 25 nM + LEI-800 0.8 µM
[24] = Ciprofloxacin 25 nM + LEI-800 3.1 µM
[25] = Ciprofloxacin 25 nM + LEI-800 6.2 µM
[26] = Ciprofloxacin 50 nM + LEI-800 0 µM
[27] = Ciprofloxacin 50 nM + LEI-800 0.1 µM
[28] = Ciprofloxacin 50 nM + LEI-800 0.2 µM
[29] = Ciprofloxacin 50 nM + LEI-800 0.4 µM
[30] = Ciprofloxacin 50 nM + LEI-800 0.8 µM
[31] = Ciprofloxacin 50 nM + LEI-800 3.1 µM
[32] = Ciprofloxacin 50 nM + LEI-800 6.2 µM

## O=C(O)c1cn(C2CC2)c2cc(N3CCNCC3)c(F)cc2c1=O [CIP, ciprofloxacin]
E. coli; [3]
  checkerboard plate reading, Average values: 0.83
  checkerboard plate reading, replicate wells: 0.8643 and 0.836 and 0.7898
E. coli; [4]
  checkerboard plate reading, Average values: 0.7281
  checkerboard plate reading, replicate wells: 0.7059 and 0.7562 and 0.7221
E. coli; [5]
  checkerboard plate reading, Average values: 0.6917
  checkerboard plate reading, replicate wells: 0.6798 and 0.723 and 0.6723
E. coli; [6]
  checkerboard plate reading, Average values: 0.6669
  checkerboard plate reading, replicate wells: 0.6638 and 0.6554 and 0.6815
E. coli; [7]
  checkerboard plate reading, Average values: 0.5857
  checkerboard plate reading, replicate wells: 0.6064 and 0.5755 and 0.5753
E. coli; [8]
  checkerboard plate reading, Average values: 0.2755
  checkerboard plate reading, replicate wells: 0.2688 and 0.2609 and 0.2967
E. coli; [9]
  checkerboard plate reading, Average values: 0.1492
  checkerboard plate reading, replicate wells: 0.1443 and 0.151 and 0.1523
E. coli; Ciprofloxacin 0.78125 nM + LEI-800 […]
  checkerboard plate reading, Average values: 0.4707
E. coli; [10]
  checkerboard plate reading, Average values: 0.8174
  checkerboard plate reading, replicate wells: 0.9018 and 0.7912 and 0.7592
E. coli; [11]
  checkerboard plate reading, Average values: 0.71
  checkerboard plate reading, replicate wells: 0.7109 and 0.704 and 0.715
E. coli; [12]
  checkerboard plate reading, Average values: 0.6776
  checkerboard plate reading, replicate wells: 0.667 and 0.7085 and 0.6572
E. coli; [13]
  checkerboard plate reading, Average values: 0.6371
  checkerboard plate reading, replicate wells: 0.6099 and 0.644 and 0.6575
E. coli; [14]
  checkerboard plate reading, Average values: 0.5615
  checkerboard plate reading, replicate wells: 0.5364 and 0.5772 and 0.571
E. coli; [15]
  checkerboard plate reading, Average values: 0.2706
  checkerboard plate reading, replicate wells: 0.2674 and 0.2638 and 0.2807
E. coli; [16]
  checkerboard plate reading, Average values: 0.1458
  checkerboard plate reading, replicate wells: 0.1385 and 0.1476 and 0.1513
E. coli; Ciprofloxacin 1.5625 nM + LEI-800 […]
  checkerboard plate reading, Average values: 0.4578
E. coli; Ciprofloxacin 3.125 nM + LEI-800 0 µM
  checkerboard plate reading, Average values: 0.7916
E. coli; Ciprofloxacin 3.125 nM + LEI-800 0.1 µM
  checkerboard plate reading, Average values: 0.7539
E. coli; Ciprofloxacin 3.125 nM + LEI-800 0.2 µM
  checkerboard plate reading, Average values: 0.6934
E. coli; Ciprofloxacin 3.125 nM + LEI-800 0.4 µM
  checkerboard plate reading, Average values: 0.6265
E. coli; Ciprofloxacin 3.125 nM + LEI-800 0.8 µM
  checkerboard plate reading, Average values: 0.5829
E. coli; Ciprofloxacin 3.125 nM + LEI-800 3.1 µM
  checkerboard plate reading, Average values: 0.2713
E. coli; Ciprofloxacin 3.125 nM + LEI-800 6.2 µM
  checkerboard plate reading, Average values: 0.1411
E. coli; Ciprofloxacin 3.125 nM + LEI-800 […]
  checkerboard plate reading, Average values: 0.464
E. coli; Ciprofloxacin 6.25 nM + LEI-800 0 µM
  checkerboard plate reading, Average values: 0.8039
E. coli; Ciprofloxacin 6.25 nM + LEI-800 0.1 µM
  checkerboard plate reading, Average values: 0.6899
E. coli; Ciprofloxacin 6.25 nM + LEI-800 0.2 µM
  checkerboard plate reading, Average values: 0.6258
E. coli; Ciprofloxacin 6.25 nM + LEI-800 0.4 µM
  checkerboard plate reading, Average values: 0.6515
E. coli; Ciprofloxacin 6.25 nM + LEI-800 0.8 µM
  checkerboard plate reading, Average values: 0.573
E. coli; Ciprofloxacin 6.25 nM + LEI-800 3.1 µM
  checkerboard plate reading, Average values: 0.2841
E. coli; Ciprofloxacin 6.25 nM + LEI-800 6.2 µM
  checkerboard plate reading, Average values: 0.1541
E. coli; Ciprofloxacin 6.25 nM + LEI-800 […]
  checkerboard plate reading, Average values: 0.4469
E. coli; Ciprofloxacin 12.5 nM + LEI-800 0 µM
  checkerboard plate reading, Average values: 0.8165
E. coli; Ciprofloxacin 12.5 nM + LEI-800 0.1 µM
  checkerboard plate reading, Average values: 0.6889
E. coli; [17]
  checkerboard plate reading, Average values: 0.6272
  checkerboard plate reading, replicate wells: 0.6163
E. coli; [18]
  checkerboard plate reading, Average values: 0.6342
  checkerboard plate reading, replicate wells: 0.6092 and 0.6266 and 0.6669
E. coli; Ciprofloxacin 12.5 nM + LEI-800 0.8 µM
  checkerboard plate reading, Average values: 0.6048
E. coli; Ciprofloxacin 12.5 nM + LEI-800 3.1 µM
  checkerboard plate reading, Average values: 0.2553
E. coli; Ciprofloxacin 12.5 nM + LEI-800 6.2 µM
  checkerboard plate reading, Average values: 0.142
E. coli; Ciprofloxacin 12.5 nM + LEI-800 […]
  checkerboard plate reading, Average values: 0.4663
E. coli; [19]
  checkerboard plate reading, Average values: 0.8434
  checkerboard plate reading, replicate wells: 0.9002 and 0.8407 and 0.7891
E. coli; [20]
  checkerboard plate reading, Average values: 0.7231
  checkerboard plate reading, replicate wells: 0.7425 and 0.7229 and 0.7038
E. coli; [21]
  checkerboard plate reading, Average values: 0.6746
  checkerboard plate reading, replicate wells: 0.7088 and 0.6616 and 0.6533
E. coli; [22]
  checkerboard plate reading, Average values: 0.6549
  checkerboard plate reading, replicate wells: 0.6481 and 0.6316 and 0.685
E. coli; [23]
  checkerboard plate reading, Average values: 0.6861
  checkerboard plate reading, replicate wells: 0.7976 and 0.6273 and 0.6333
E. coli; [24]
  checkerboard plate reading, Average values: 0.2871
  checkerboard plate reading, replicate wells: 0.2705 and 0.2575 and 0.3334
E. coli; [25]
  checkerboard plate reading, Average values: 0.1517
  checkerboard plate reading, replicate wells: 0.149 and 0.1483 and 0.1579
E. coli; Ciprofloxacin 25 nM + LEI-800 […]
  checkerboard plate reading, Average values: 0.5325
E. coli; [26]
  checkerboard plate reading, Average values: 0.8946
  checkerboard plate reading, replicate wells: 0.9376 and 0.8747 and 0.8715
E. coli; [27]
  checkerboard plate reading, Average values: 0.7443
  checkerboard plate reading, replicate wells: 0.7759 and 0.7241 and 0.7328
E. coli; [28]
  checkerboard plate reading, Average values: 0.6725
  checkerboard plate reading, replicate wells: 0.6624 and 0.6684 and 0.6868
E. coli; [29]
  checkerboard plate reading, Average values: 0.6531
  checkerboard plate reading, replicate wells: 0.6441 and 0.64 and 0.6751
E. coli; [30]
  checkerboard plate reading, Average values: 0.7311
  checkerboard plate reading, replicate wells: 0.701 and 0.7232 and 0.7691
E. coli; [31]
  checkerboard plate reading, Average values: 0.2841
  checkerboard plate reading, replicate wells: 0.2522 and 0.2675 and 0.3325
E. coli; [32]
  checkerboard plate reading, Average values: 0.151
  checkerboard plate reading, replicate wells: 0.1483 and 0.1495 and 0.1553
E. coli; Ciprofloxacin 50 nM + LEI-800 […]
  checkerboard plate reading, Average values: 0.6545
[1]; E. coli W3110 gyrA D87N (FQ-resistant 2)
  MIC: > 1.5 µM
[1]; E. coli W3110 gyrA S83L (FQ-resistant 1)
  MIC: > 1.5 µM
[1]; E. coli W3110 gyrA S97L (LEI-800-resistant)
  MIC: 0.024 µM (≈ 7.95 ng/mL)
K. pneumoniae ATCC 29665
  MIC: 0.012 µM (≈ 3.98 ng/mL)
[2]; BW25113, JW3594 ΔrfaD
  MIC: > 0.048 µM
[2]; BW25113, JW3596 ΔrfaC, LPS disruption (genetic)
  MIC: 0.024 µM (≈ 7.95 ng/mL)
[2]; BW25113, JW3600 ΔrfaY
  MIC: 0.024 µM (≈ 7.95 ng/mL)
[2]; BW25113, JW3602 ΔrfaI
  MIC: 0.024 µM (≈ 7.95 ng/mL)
[2]; BW25113, JW3605 ΔrfaP
  MIC: 0.048 µM (≈ 15.9 ng/mL)
[2]; BW25113, JW5503 ΔTolC
  MIC: 0.024 µM (≈ 7.95 ng/mL)
[2]; BW25113, read-out: MIC E. coli BW25113, parent strain
  MIC: 0.024 µM (≈ 7.95 ng/mL)
